Source: ChEMBL document CHEMBL1150075, “Apiosporamide, a new antifungal agent from the coprophilous fungus Apiospora montagnei” (1994)
The source made the active and inactive calls. The rule behind the calls is not given here.

How the values were obtained:
Ascobolus = experiment: Antifungal activity against Ascobolus furfuraceus NRRL 6460 assessed as inhibition of radial growth rate at 200 ug/disk relative to control; format: functional; design: scale not given: the % may be the effect or the level left
Bacillus subtilis = experiment: Antibacterial activity against Bacillus subtilis ATCC 6051 at 200 ug/disk; format: functional; details: read-out: IZ
Staphylococcus aureus = experiment: Antibacterial activity against Staphylococcus aureus ATCC 29213 at 200 ug/disk; format: functional; details: read-out: IZ
Candida albicans = experiment: Antifungal activity against Candida albicans ATCC 14053 at 200 ug/disk; format: functional, organism-based

Compound: C[C@H]1CC[C@@H]2[C@@H](C(=O)c3c(O)c([C@]4(O)CC[C@@H](O)[C@H]5O[C@H]54)c[nH]c3=O)[C@@H](C)C=C[C@H]2C1 [APIOSPORAMIDE]
- Activity (Ascobolus): 53%
- zone of inhibition at 200 µg/disc (Bacillus subtilis): 32 mm
- zone of inhibition at 200 µg/disc (Staphylococcus aureus): 21 mm
- Activity (Candida albicans): inactive
